In one series the target is T1, progesterone receptor (Sus scrofa, UniProt D0EWS6).
T1 construct: from tissue; host or cells: hog uterus, cytosol (100,000×g supernatant)
T1 sequence (D0EWS6 1-934): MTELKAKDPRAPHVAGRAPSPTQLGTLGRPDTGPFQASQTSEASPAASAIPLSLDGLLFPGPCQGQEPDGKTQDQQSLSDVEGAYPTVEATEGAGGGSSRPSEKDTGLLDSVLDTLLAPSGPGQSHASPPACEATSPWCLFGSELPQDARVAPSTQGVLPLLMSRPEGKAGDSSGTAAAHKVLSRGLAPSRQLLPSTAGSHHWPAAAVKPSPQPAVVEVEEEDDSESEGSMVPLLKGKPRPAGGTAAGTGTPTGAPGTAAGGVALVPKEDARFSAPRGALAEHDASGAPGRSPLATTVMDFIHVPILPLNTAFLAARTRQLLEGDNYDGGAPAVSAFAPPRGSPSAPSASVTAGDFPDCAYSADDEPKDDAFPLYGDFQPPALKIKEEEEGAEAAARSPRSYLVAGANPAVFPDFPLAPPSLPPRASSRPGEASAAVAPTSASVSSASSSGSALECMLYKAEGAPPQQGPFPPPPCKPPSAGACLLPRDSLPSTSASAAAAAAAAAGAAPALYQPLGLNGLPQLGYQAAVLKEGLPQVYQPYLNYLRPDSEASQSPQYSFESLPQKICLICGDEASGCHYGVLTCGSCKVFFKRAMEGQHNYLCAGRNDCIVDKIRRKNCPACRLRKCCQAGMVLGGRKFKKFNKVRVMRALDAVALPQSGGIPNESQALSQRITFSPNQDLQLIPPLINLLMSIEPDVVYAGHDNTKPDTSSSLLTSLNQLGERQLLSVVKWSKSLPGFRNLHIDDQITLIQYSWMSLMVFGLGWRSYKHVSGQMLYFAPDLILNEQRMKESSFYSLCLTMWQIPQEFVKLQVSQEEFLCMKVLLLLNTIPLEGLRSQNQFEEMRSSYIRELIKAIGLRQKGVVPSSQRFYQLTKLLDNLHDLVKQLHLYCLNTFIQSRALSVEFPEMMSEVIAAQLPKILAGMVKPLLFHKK
As to the kind of experiment: progesterone receptor binding inhibition ([^3 H]-progesterone, cytosol from uteri of hogs). The note with it: [^3 H]-progesterone ligand, hog uterus cytosol, 60 min at 4° C.; read-out: Inhibitory activity (IC50) against progesterone receptor binding. The procedure:
That is, uteri taken from hogs in 5 mM phosphate buffer were disrupted using Polytron homogenizer, and the resulting solution was centrifuged (100,000×g, 30 min) to separate the supernatant, thereby preparing a cytosol containing progesterone receptor. […] Then, 100 μl of a 0.5% activated carbon solution was added to the reaction solution, and the mixture was allowed to stand for 10 min and then centrifuged (2,000×g, 10 min). The radioactivity of the supernatant was measured with a liquid scintillation counter.
Separately, the radioactivity was measured in the same manner as described above, except that no test drug was added. Further, the radioactivity was measured in the same manner as described above, except that 10 μl of Medroxyprogesterone Acetate (MPA) (10 μg/ml) was added instead of the test drug. The radioactivity with no test drug added was defined as the amount of total binding of [^3 H]-progesterone to the cytosol, and the radioactivity with MPA added was defined as the amount of non-specific binding. The inhibition ratio was calculated from these measured values by the following equation to determine the binding inhibitory activity (IC50). [formula]

The nature of the next series: Solubility. Format: physicochemical. The note with it: for Solubility (solvents in which soluble): organic solvents; for Solubility (solvents in which insoluble): water and hexane.

This is an account of results in patent US6255339A, “Tetrahydronaphthofuranone derivatives and process for producing the same” (Meiji Seika Kaisha, Ltd., priority 1996, dated 2001).

Regarding `CC(=O)O[C@H]1CC=C2C=C3OC(=O)C(C)=C3C[C@]2(C)[C@H]1C` (relative stereo) [Example B2, (4aR*,5R*,6S*)-6-Acetoxy-4a,5,6,7-tetrahydro-3,4a,5-trimethylnaphtho[2,3-b]furan-2(4H)-one], the IC50 on progesterone receptor was 55 nM. Turning to `CCCC(=O)O[C@H]1CC=C2C=C3OC(=O)C(C)=C3C[C@]2(C)[C@H]1C` (relative stereo) [Example B4, (4aR*,5R*,6S*)-6-Butyryloxy-4a,5,6,7-tetrahydro-3,4a,5-trimethylnaphtho[2,3-b]furan-2(4H)-one], on progesterone receptor, the IC50 came to 53 nM. On the same count and under the same terms, with `CC1=C2C[C@@]3(C)C(=CC[C@H](OC(=O)c4ccccc4)[C@@H]3C)C=C2OC1=O` (relative stereo) [Example B7, (4aR*,5R*,6S*)-6-Benzoyloxy-4a,5,6,7-tetrahydro-3,4a,5-trimethylnaphtho[2,3-b]furan-2(4H)-one] the figure was 54 nM; with `CC(=O)O[C@H]1CC=C2C=C3OC(=O)C=C3C[C@]2(C)[C@H]1C` (relative stereo) [Example B27, (4aR*,5R*,6S*)-6-Acetoxy-4a,5-dimethyl-4a,5,6,7-tetrahydronaphtho [2,3-b]furan-2(4H)-one], 39 nM. Same read-out and setting: next, `CCC(=O)O[C@H]1CC=C2C=C3OC(=O)C=C3C[C@]2(C)[C@H]1C` (relative stereo) [Example B28]: 66 nM; `C[C@H]1[C@@H](OC(=O)c2ccco2)CC=C2C=C3OC(=O)C=C3C[C@@]21C` (relative stereo) [Example B30, (4aR*,5R*,6S*)-4a,5-Dimethyl-6-(2-furoyl)oxy-4a,5,6,7-tetrahydronaphtho[2,3-b]furan-2(4H)-one]: 60 nM; `CC(=O)O[C@H]1CC=C2C=C3OC(=O)C(C)=C3C[C@]2(C)[C@H]1C` [B42 (Natural type)]: 33 nM. Consider `CCC(=O)O[C@H]1C=C2C=C3OC(=O)C(C)=C3C[C@]2(C)[C@@H](C)[C@H]1O` [Example A1, (4aR,5R,6R,7S)-6-Hydroxy-7-propionyloxy-4a,5,6,7-tetrahydro-3,4a,5-trimethylnaphtho[2,3-b]furan-2(4H)-one], for which the IC50 at progesterone receptor is 1000 nM. Still for that read-out and setting: with `CC1=C2C[C@@]3(C)C(=C[C@H](O)[C@H](OC(=O)c4ccco4)[C@@H]3C)C=C2OC1=O` [Example A3, (4aR,5R,6R,7S)-6-(2-Furancarbonyl)oxy-7-hydroxy-4a,5,6,7-tetrahydro-3,4a,5-trimethylnaphtho[2,3-b]furan-2(4H)-one] the figure was 12 nM. Same read-out and setting: next, `CCCNC(=O)O[C@H]1[C@@H](O)C=C2C=C3OC(=O)C(C)=C3C[C@]2(C)[C@H]1C` [Example A6b, (4aR,5R,6R,7S)-7-Hydroxy-6-(n-propyl)carbamoyloxy-4a,5,6,7-tetrahydro-3,4a,5-trimethylnaphtho[2,3-b]furan-2(4H)-one]: 288 nM; `CC1=C2C[C@@]3(C)C(=C[C@H](OCc4ccccc4)[C@H](O)[C@@H]3C)C=C2OC1=O` [Example A7, (4aR,5R,6R,7S)-7-Benzyloxy-6-hydroxy-4a,5,6,7-tetrahydro-3,4a,5-trimethylnaphtho[2,3-b]furan-2(4H)-one]: 2840 nM. As to `COCO[C@H]1C=C2C=C3OC(=O)C(C)=C3C[C@]2(C)[C@@H](C)[C@H]1OC(=O)c1ccccc1` [Example A8, (4aR,5R,6R,7S)-6-Benzoyloxy-7-methoxymethoxy-4a,5,6,7-tetrahydro-3,4a,5-trimethylnaphtho[2,3-b]furan-2(4H)-one], on progesterone receptor, the IC50 came out at 97 nM. On the same count and under the same terms, with `CCC(=O)O[C@H]1[C@H](OC)C=C2C=C3OC(=O)C(C)=C3C[C@]2(C)[C@H]1C` [Example A10, (4aR,5R,6R,7R)-7-Methoxy-6-propionyloxy-4a,5,6,7-tetrahydro-3,4a,5-trimethylnaphtho[2,3-b]furan-2(4H)-one] the figure was 75 nM; with `CC1=C2C[C@@]3(C)C(=C[C@H](O)[C@H](OC(=O)CCl)[C@@H]3C)C=C2OC1=O` [Example A12, (4aR,5R,6R,7S)-6-Chloroacetoxy-7-hydroxy-4a,5,6,7-tetrahydro-3,4a,5-trimethylnaphtho[2,3-b]furan-2(4H)-one], 83 nM; with `CC1=C2C[C@@]3(C)C(=C[C@H](O)[C@H](OC(=O)C4CC4)[C@@H]3C)C=C2OC1=O` [Example A17, (4aR,5R,6R,7S)-6-Cyclopropylcarbonyloxy-7-hydroxy-4a,5,6,7-tetrahydro-3,4a,5-trimethylnaphtho[2,3-b]furan-2(4H)-one], 17 nM. Regarding `CC1=C2C[C@@]3(C)C(=C[C@H](O)[C@H](OC(=O)C4CCCCC4)[C@@H]3C)C=C2OC1=O` [Example A19, (4aR,5R,6R,7S)-6-Cyclohexylcarbonyloxy-7-hydroxy-4a,5,6,7-tetrahydro-3,4a,5-trimethylnaphtho[2,3-b]furan-2(4H)-one], the half-maximal inhibitory concentration (IC50) on progesterone receptor worked out at 47 nM. On the same count and under the same terms, next, `CC1=C2C[C@@]3(C)C(=C[C@H](O)[C@H](OC(=O)c4ccccc4)[C@@H]3C)C=C2OC1=O` [Example A21, (4aR,5R,6R,7S)-6-Benzoyloxy-7-hydroxy-4a,5,6,7-tetrahydro-3,4a,5-trimethylnaphtho[2,3-b]furan-2(4H)-one]: 27 nM. Consider `CC1=C2C[C@@]3(C)C(=C[C@H](O)[C@H](OC(=O)c4ccc([N+](=O)[O-])cc4)[C@@H]3C)C=C2OC1=O` [Example A23, (4aR,5R,6R,7S)-7-Hydroxy-6-(4-nitrobenzoyl)oxy-4a,5,6,7-tetrahydro-3,4a,5-trimethylnaphtho[2,3-b]furan-2(4H)-one], for which the IC50 on progesterone receptor amounted to 18 nM. Same read-out and setting: with `CO[C@H]1C=C2C=C3OC(=O)C(C)=C3C[C@]2(C)[C@@H](C)[C@H]1OC(C)=O` [Example A30, (4aR,5R,6R,7S)-6-Acetoxy-7-methoxy-4a,5,6,7-tetrahydro-3,4a, 5-trimethylnaphtho[2,3-b]furan-2(4H)-one] the figure was 47 nM; with `CCO[C@@H]1C=C2C=C3OC(=O)C(C)=C3C[C@]2(C)[C@@H](C)[C@H]1OC(=O)c1cccs1` [Example A41, (4aR,5R,6R,7R)-7-Ethoxy-6-(2-thiophencarbonyl)oxy-4a,5,6,7-tetrahydro-3,4a,5-trimethylnaphtho[2,3-b]furan-2(4H)-one], 400 nM. Still for that read-out and setting: next, `CC(=O)O[C@@H]1C=C2C=C3OC(=O)C(C)=C3C[C@]2(C)[C@@H](C)[C@H]1OC(=O)c1ccco1` [Example A44, (4aR,5R,6R,7R)-7-Acetoxy-6-(2-furancarbonyl)oxy-4a,5,6,7-tetrahydro-3,4a,5-trimethylnaphtho[2,3-b]furan-2(4H)-one]: 276 nM; `CC1=C2C[C@@]3(C)C(=C[C@@H](O)[C@H](OC(=O)c4cccs4)[C@@H]3C)C=C2OC1=O` [Example A45, (4aR,5R,6R,7R)-7-Hydroxy-6-(2-thiophencarbonyl)oxy-4a,5,6,7-tetrahydro-3,4a, 5-trimethylnaphtho[2,3-b]furan-2(4H)-one]: 29 nM; `CC(=O)O[C@@H]1CC=C2C=C3OC(=O)C(C)=C3C[C@@]2(C)[C@@H]1C` [Example B42 (Nonnatural type)]: 797 nM. In the case of `CC(=O)O[C@H]1[C@@H](O)C=C2C=C3OC(=O)C(C)=C3C[C@]2(C)[C@H]1C` [PF1092A], in the series “Solubility”, the “Solubility (solvents in which soluble)” value was “soluble in chloroform, acetone, ethyl acetate, methanol and dimethyl sulioxide”; the “Solubility (solvents in which insoluble)” value is “insoluble in water and hexane”.

As for `CC(=O)O[C@H]1C=C2C=C3OC(=O)C(C)=C3C[C@]2(C)[C@@H](C)[C@H]1O` [PF1092B], in the series “Solubility”, the “Solubility (solvents in which soluble)” value was “soluble in chloroform, acetone, ethyl acetate, methanol and dimethyl sulioxide”; the “Solubility (solvents in which insoluble)” value was “insoluble in water and hexane”. Turning to `CC1=C2C[C@@]3(C)C(=C[C@H](O)[C@H](O)[C@@H]3C)C=C2OC1=O` [PF1092C], in “Solubility”, the “Solubility (solvents in which soluble)” value is “soluble in chloroform, acetone, ethyl acetate, methanol and dimethyl sultoxide”; the “Solubility (solvents in which insoluble)” value was “insoluble in water and hexane”.
